The record followed here is a melting point compilation (Tetko et al.; mined from patent text by program, amines drawn as free bases though some values may be those of a salt).

Each structure is given as a SMILES string. A value given as a limit tells only on which side of the number the result lay.

Take `COC(=O)CCc1cc2nc(Cl)ccc2n1S(=O)(=O)c1ccc2c(c1)CCN2C(C)=O`: the melting point – broadly, the temperature of the solid-liquid transition – worked out at 66 °C.
Take `CCOC(=O)[C@H]1O[C@@H]1C(=O)N[C@H](COCc1ccsc1)CC(C)C`: the melting point was in the range of 61 to 62.5 °C.
The figure for `CCc1cc([N+](=O)[O-])c(N)cc1Cl` is 100 to 101 °C; for `O=[N+]([O-])c1cc(-c2nsc(C(F)(F)F)c2Cl)c(Cl)cc1Cl` it is 104 to 106 °C; for `O=C(NCc1ccccc1)c1cc([N+](=O)[O-])ccc1N[C@H]1CC[C@H](O)CC1` it is 233 to 234 °C.
The figure for `COc1cc(OC)cc(OC(=O)N2CCCC2=O)c1` is 80 to 81 °C; for `CCCCCCCCCNC(=O)OCCCNC(=O)OC1CCN(C(=O)Oc2ccc(Oc3ccccc3)cc2)CC1` it is 89 to 91 °C.
The compound `CCOC(=O)c1cn(C2CC2)c2cc(F)c(F)c(N)c2c1=O` had a melting point of 240 to 241 °C.
Regarding `Nc1nc(NCCN2CCOCC2)nc2nc(-c3ccco3)nn12`, the melting point was in the range of 242 to 244 °C.
`CC(=O)OCC(=O)NNC(=O)c1ccc2occ(-c3cccc(OC(F)(F)F)c3)c2c1` showed a melting point of 161 to 162 °C.
In the case of `N#CCC1(c2onc(-c3ccc(O)cc3)c2-c2ccccc2)CC1` it was 189 to 190 °C; in that of `COc1ccccc1[C@@]1(O)[C@H](O)CC(c2ccccc2)(c2ccccc2)[C@@H]2CN(C(=O)Cc3c[nH]c4ccccc34)C[C@@H]21` (racemic), 266 °C; in that of `CC(C)CSc1nc(N)nc2c1ncn2C1C=CC(CO)C1` (stereo not given), 127 to 129 °C.
The figure for `CC12CC(C#N)(CC1=O)C(C)(C)O2` (stereo not given) is 74 to 76 °C; for `COc1ccc2c(c1)Sc1c(cc(OC)c(OC(C)=O)c1Br)N2C` it is 189 to 190 °C; for `CS(=O)(=O)OCCn1c(=NC(=O)C(F)(F)F)sc2cc(OC(F)(F)F)ccc21` it is 145 °C.
In the case of `COc1ccn(-c2ccc(C3CCN(S(=O)(=O)C(C)(C)C(=O)NO)CC3)cc2C)n1` it was 172 to 173 °C; in that of `COCCOc1ccc(C#CC2(O)CN3CCC2CC3)cc1Cl` (stereo not given), 138 to 139 °C.
`Cc1cc(C)c(C(C)(C)O)c(C)c1`: the melting point lay within 106 to 107 °C.
In the case of `CCCC1=C(C#N)C(c2ccccc2Cl)c2c(n[nH]c2-c2ccccc2OC)N1` (stereo not given) it was greater than 270 °C; in that of `Cc1cccc(C2C(C#N)=C(C(C)C)Nc3n[nH]cc32)c1[N+](=O)[O-]` (stereo not given), 261 °C.
The figure for `CCCCc1nc(CO)c(C(=O)ON2C(=O)CCC2=O)n1Cc1ccc(-c2ccccc2C(=O)OC(C)(C)C)cc1` is 107 to 109 °C; for `CNC1NC(=O)c2ccccc21` (stereo not given) it is 152 °C.
The compound `CCOCC(=O)Nc1ccc(C2=NNC(=O)CC2C)cc1` (stereo not given) yielded a melting point of 195 to 197 °C.
For the compound `Nc1ccccc1Nc1ccc(I)cc1`, the melting point fell in the range of 122 to 123 °C.
Compound `Cc1cc(S(=O)(=O)c2ccc(N)cc2)cc(Br)n1` returned a melting point of 189 to 191 °C.
In the case of `CCCNc1ccc(NC(=O)c2ccc(NC(=O)c3ccc(NCCC)nc3)nc2)nc1` it was 249 to 250 °C; in that of `CCC(C)(C)C1=CC(=CC(=O)O)C=C(C(C)(C)CC)C1=O`, 109 to 110 °C; in that of `C[C@@H]1N=C(c2ccccc2Cl)c2cc(I)sc2NC1=O`, 235 to 237 °C.
`CCOC(=O)c1cc(Cl)cnc1NC(=O)Cc1ccccc1` had a melting point of 114 °C.
The figure for `CCN1C(=O)C(Cl)(Cl)c2cc3sccc3cc21` is 143 to 144 °C; for `O=C(Cc1c(-c2ccccc2)c2cc3c(cc2oc1=O)C=CC3)Nc1ccc(F)cc1C(F)(F)F` it is 217 to 218 °C; for `C/C=C/Cn1c(Oc2cc(C)cc(C)c2)c(CC)c(=O)[nH]c1=O` it is 149 to 150 °C.
Take `Cc1ccc(-c2nc(Cl)nc(Cl)c2-c2ccccc2)cc1`: the melting point was in the range of 130 to 132 °C.
In the case of `CNCc1ccc(-c2cc3c4c(ccn4C(=O)CNC3)c2)cc1` it was 178 to 180 °C; in that of `COc1ccc(N2CCOCC2)c2sc(-c3nc(-c4ccc5c(c4)OCCO5)c[nH]3)nc12`, 235 to 237 °C.
As to `NCc1ccc(CNC(=O)[C@@H](CCCNC(N)=N[N+](=O)[O-])NC(=O)C(c2ccccc2)c2ccccc2)cc1`, the melting point was in the range of 198 to 199 °C.
`CC(C)(Cc1cc2cc(OCc3ccc4occc4n3)ccc2n1Cc1ccc(Cl)cc1)C(=O)O` returned a melting point of 157 °C.
Compound `ON=C1c2cc(Cl)ccc2-n2cccc21` showed a melting point of 211 °C.
The figure for `N#Cc1c(N2CCCCC2)cc(-c2ccc3ccccc3c2)c2c1Cc1ccccc1-2` is 142 to 144 °C; for `CCCc1c(O)c(F)cc(C(C)=O)c1O` it is 129 to 130 °C; for `CCCc1nc2ccccc2c(=O)n1Cc1ccc(-c2ccccc2-c2nnn[nH]2)cc1` it is 171 to 172 °C.
The figure for `CCOC(=O)C(=CC=C(C#N)c1ccccc1)N(C)C` is 67 °C; for `COc1cc2c(c3c1OC(C)(C)C3)C(c1cccc(N3CCNC3=O)c1)=NC(C)(C)C2` it is 225 to 227 °C; for `CC1=CC(=O)CC2CCC3C4C(C#N)CC(=O)C4(C)CCC3C12C` (stereo not given) it is 193 °C.
`O=C1c2cccc(Br)c2C(=O)N1c1ccc(OC(F)(F)F)cc1` had a melting point of 117 to 118 °C.
`N#CC(C=N)CC(=O)c1ccccc1F` (stereo not given) returned a melting point of 120 to 122 °C.
In the case of `CC(C)Oc1ccc2c(c1)Cc1ccccc1C2=O` it was 123 to 124 °C.
The compound `O=C(NNS(=O)(=O)c1ccccc1)c1ccccc1CCc1ccccc1` registered a melting point of 158 to 159 °C.
The figure for `OCC1CCC(CBr)CC1` (stereo not given) is 146 to 149 °C.
In turn, `O=C(Cn1nc(Cl)nc1Cl)N1CCC(c2nc(C3=NOC(c4c(F)cccc4F)C3)cs2)CC1` (stereo not given) displayed a melting point of 147 to 150 °C.
The figure for `NC(=O)c1cc(C(=O)N(CCO)CCO)cc([N+](=O)[O-])c1` is 151 °C.
The figure for `O=C(O)c1cc(-c2cccc(C(F)(F)F)c2)nc(C(F)(F)F)c1` is 185 to 186 °C; for `Cc1cc(C)c2c(c1)C(=O)CC21CNC(=O)C1` (stereo not given) it is 208 to 210 °C; for `CCCCCCCCCCCCCCCCNc1ccc(C=O)cc1` it is 66.5 to 67.5 °C.
The figure for `Cc1nc2cccc(Cn3ccc4cc(Cl)ccc43)c2c(=O)[nH]1` is 251 to 252 °C; for `N#Cc1ccc(S(F)(F)(F)(F)F)cc1[N+](=O)[O-]` it is 57 to 59 °C; for `COC(=O)C1CC2=C(CO1)C(=O)C=CC2=O` (stereo not given) it is 55 to 58 °C.
Regarding `C[C@H](NC(=O)C[C@@H](CC(=O)O)c1ccc(F)cc1)c1ccccc1`, the melting point fell in the range of 195 to 196 °C.
Take `CCCCCCCCCCc1ccc(C(=O)O[C@@H]2CC[C@H](NC(=O)[C@H](OC)[C@H](O)[C@@H](O)[C@H](O)/C=C/C(C)(C)C)C(=O)NC2)cc1`: the melting point was in the range of 60 to 64 °C.
The figure for `CCN1C=C(C(=O)O)C(=O)CC1c1cccc(Cl)c1` (stereo not given) is 143 to 145 °C; for `CN1CCC(P(=O)(O)O)(P(=O)(O)O)N=C1N` it is 308 °C.
In the case of `O=c1ccn(-c2cccc(C(F)(F)F)c2)nc1-c1ccnn1Cc1ccccc1` it was 156 to 157 °C; in that of `Nc1ncccc1-c1nc2cccnc2n1-c1ccc(CNC(=O)c2ccccc2)cc1`, 226 to 228 °C; in that of `N#Cc1ccc2oc3c(c(=O)c2c1)CCCC3`, 198 to 200 °C.
Compound `CCCc1ccc2nc(SCC)c(S(N)(=O)=O)n2n1` had a melting point of 176 to 177 °C.
The figure for `COC(=O)c1cc(-c2ccc(F)c(C)c2)nn(CC(C)C)c1=O` is 71.4 to 73.8 °C.
In the case of `Cc1ccc(Cl)cc1NC(=S)Nc1nc(C)c(C)s1` it was 188 to 189 °C.
In the case of `O=[N+]([O-])c1ccc(F)cc1OC1C=CCC1` (stereo not given) it was 50.5 to 51 °C.
`Nc1ccc2ncc(C(=O)NCc3ccc(Cl)cc3)c(O)c2c1` displayed a melting point greater than 225 °C.
The figure for `CC(C)(C)c1cc(NC(=O)NNC(=O)c2ccc(N)cc2)cc(C(C)(C)C)c1O` is 245 to 246 °C; for `CC(C)(C)C1=CC(c2cccc([N+](=O)[O-])c2)C2=C(CCCC2=O)N1` (stereo not given) it is 180 to 182 °C; for `CCOc1c(NCc2c(C)cc(C)cc2Cl)c(=O)c1=O` it is 292 to 294 °C.
The figure for `CN(C)CC(=O)N1c2ccccc2N(C)S(=O)(=O)c2ccc(C(F)(F)F)cc21` is 156 to 157 °C.
The figure for `CNc1nc(OCc2ccccc2)ccc1[N+](=O)[O-]` is 149 °C; for `Cc1nc(-c2cccc(C(=O)N[C@H]3CC[C@H](CCN4CCN(c5nccc6c5OCC6)CC4)CC3)c2)no1` it is 228 °C; for `COc1ccccc1N1CCN(S(=O)(=O)c2ccc(N)cc2)CC1` it is 230 to 232 °C.
Consider `CCn1cc(C(=O)O)c(=O)c2cc(F)c(N3CCNC(c4ccsc4)C3)cc21` (stereo not given), for which the melting point was 198 to 200 °C.
In the case of `CCC(=CC(CNC(=O)c1ccncc1)=NO)C(C)[N+](=O)[O-]` (stereo not given) it was 145 to 148 °C; in that of `CCOC(=O)c1[nH]cc(C)c1-c1ccccc1`, 62 to 64 °C.
In the case of `Cc1c(OC(F)F)ccnc1CSc1nc2ccccc2[nH]1` it was 99 to 100 °C; in that of `CCOC(=O)C(CO)NC(=O)C(N)(CC(=O)O)NC(=O)C(C)C` (stereo not given), 175 to 178 °C.
The figure for `O=C(O)CSC(CCc1ccccc1)c1ccc(OCc2ccc3ccccc3n2)cc1` (stereo not given) is 117 to 118 °C; for `O=c1[nH]c2ccccc2cc1Br` it is 263 to 265 °C; for `CCc1c(Cl)cnc(N)c1F` it is 71 to 72 °C.
In the case of `Cc1oc(-c2ccccc2)nc1CCOc1ccc(CC(F)(C(=O)NS(C)(=O)=O)c2ccccc2)cc1` (stereo not given), the melting point was in the range of 118 to 120 °C.
Regarding `CCCCCCC1CCC(O)C(=O)O1` (stereo not given), the melting point is 75.5 to 77 °C.
`COc1ccccc1OP(=O)(CN(CC#N)N=O)Oc1ccccc1OC` gave a melting point of 83 to 85 °C.
For `O=S(=O)(Nc1ccc2c(OCc3coc(-c4ccccc4)n3)cccc2c1)C(F)(F)F`, the melting point is 195 to 197 °C.
The compound `CCCCc1cnc(SC)[nH]c1=O` returned a melting point of 138 to 140 °C.
